This is an account of results in EP4775582A1, “MACROCYCLIC COMPOUND AND ANTIBODY-DRUG CONJUGATE THEREOF” (Genfleet Therapeutics (Shanghai) Inc., priority 2023, dated 2025).

In one series the target is KRAS G12V-cRAF (Homo sapiens, UniProt P01116+P62937, G12V). The series can be described thus: Assay for binding of KRAS to cRAF (HTRF, with Cyclophilin A), KRAS G12V. To be noted: KRAS G12V-cRAF binding assay(nM), GPPNP-KRAS G12V, IC50 values. For orientation: TR-FRET usually uses a lanthanide donor and a delayed reading to cut background.
The test system of the next series is AsPC-1 p-ERK. The series can be described thus: Cell p-ERK assay (HTRF), AsPC-1 cells. The class given is cell-based, human. To be noted: Homo sapiens; for pIC50: ASPC1, AsPC-1 cells (KRAS G12D), 3 h incubation, read-out: AsPC-1 p-ERK IC50. Summed up: (§1)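 AsPC-1 (10000/well) or NCI-H441 (20000/well) cells were seeded overnight and then exposed to compound for 3 h at 37 °C. Lysates were probed for ERK phospho-T202/Y204 by HTRF with a 4-hour antibody incubation. IC50 values came from four-parameter fits of inhibition against log concentration.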

Series [1] can be described thus: Solubility experiment (HPLC, external standard). To be noted: pH 7.4, pH 7.4 medium, 37 °C, 24 h. The class given is physicochemical. The protocol:
This experiment was intended to determine the solubility of the compounds in media at different pH values. The materials used in the experiment included: a pH 1.2 medium, a pH 4.5 medium, a pH 7.4 medium, and a diluent (acetonitrile/water = 50/50). 1. The preparation methods for media are as follows:
One centrifuge tube (containing about 2 mg of the test sample) was taken, 1 mL of DMSO was added to completely dissolve the test sample, and the mixture was marked as stock-1. 0.2 mL of stock-1 was transferred into a 10 mL volumetric flask, and then the 50:50 (acetonitrile/water) solution was added to bring the volume to the mark, so as to give a control solution.
Additionally, centrifuge tubes each containing about 1 mg of the test sample were taken, 1 mL of the corresponding medium solution was then added, and the tubes were shaken on a 37 °C water bath shaker for 24 h. After centrifugation for 3 times (centrifugation time: 10 min, rotation speed: 12000 rpm), 0.2 mL of the supernatants were taken, 0.8 mL of the diluent (acetonitrile/water = 50/50) was added to each tube, and the mixtures were vortexed and mixed well to give solubility samples.
The solubility samples described above and the control solution were sequentially analyzed by high performance liquid chromatography. The chromatographic conditions are as follows:
The actual concentration of the compound in each solubility sample was calculated according to an external standard method. Concentration (μg/mL) = (ASample × CControl × DSample)/(AControl)∗1000; [formula] Asample: the peak area of the target peak in the sample solution; Ccontrol: the concentration (mg/mL) of the control solution; Dsample: the dilution factor of the sample solution; Acontrol: the peak area of the target peak in the control solution.

Another series has as its system H441 p-ERK. As to the kind of experiment: Cell p-ERK assay (HTRF), NCI-H441 cells. The class given is cell-based, human. The note with it: Homo sapiens; NCI-H441 cells (KRAS G12V), 3 h incubation. The gist of the method: as §1
Another series addresses KRAS WT-cRAF (Homo sapiens, UniProt P01116+P62937). As to the kind of experiment: Assay for binding of KRAS to cRAF (HTRF, with Cyclophilin A), KRAS WT. The note with it: KRAS WT-cRAF binding assay(nM), GPPNP-KRAS WT, IC50 values.
For another series, the system named is NCI-H441 cells. As to the kind of experiment: 3D cell proliferation assay (CellTiter Glo-3D), NCI-H441. The note with it: Homo sapiens, 120 h, NCI-H441 cells (KRAS G12V), 2% FBS, 5 days, read-out: H441 AP IC50. It is filed as cell-based, human. The gist of the method: (§2)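 Cells seeded at 800 per well (AsPC-1, NCI-H441) in 2% FBS medium and incubated overnight at 37 °C, 5% CO2. Compounds added next day from 10× stock, then 5 days' further culture. Viability read by CellTiter-Glo luminescence; IC50 from four-parameter fit of inhibition versus log concentration.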
(In general: ATP-based viability assays read luminescence as a measure of living cells.)

Another series deals with AsPC-1 cells. As to the kind of experiment: 3D cell proliferation assay (CellTiter Glo-3D), AsPC-1. It is filed as cell-based, human. The note with it: Homo sapiens, ASPC1, 120 h; for pIC50: AsPC-1 cells (KRAS G12D), 3D, 2% FBS, 5 days, read-out: AsPC-1 AP IC50. Summed up: as §2

pIC50: −log10 of the molar value. In brackets after ≈: the same amount, converted by molar mass. Read-outs that look alike come from different tables or passages of the source.

KRAS G12V-cRAF, sequence (P01116 1-188 isoform P01116-2 G12V): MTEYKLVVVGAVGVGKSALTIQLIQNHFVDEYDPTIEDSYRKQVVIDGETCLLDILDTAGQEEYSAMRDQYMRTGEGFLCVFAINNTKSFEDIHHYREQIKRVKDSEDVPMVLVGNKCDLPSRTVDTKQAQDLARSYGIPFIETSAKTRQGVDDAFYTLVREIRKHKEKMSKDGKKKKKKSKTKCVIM
KRAS G12V-cRAF, sequence (P62937 whole entry): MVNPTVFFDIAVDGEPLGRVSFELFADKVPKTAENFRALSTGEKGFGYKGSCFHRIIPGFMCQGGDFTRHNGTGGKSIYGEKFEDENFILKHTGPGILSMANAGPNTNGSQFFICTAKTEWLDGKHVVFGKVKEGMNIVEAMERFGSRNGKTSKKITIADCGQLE
KRAS WT-cRAF, sequence (P01116 1-188 isoform P01116-2): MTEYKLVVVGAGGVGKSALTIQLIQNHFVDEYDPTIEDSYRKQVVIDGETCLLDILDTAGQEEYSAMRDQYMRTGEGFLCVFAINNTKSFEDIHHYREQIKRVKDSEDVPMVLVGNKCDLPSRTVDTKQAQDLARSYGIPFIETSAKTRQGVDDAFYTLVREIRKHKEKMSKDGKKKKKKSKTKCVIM
KRAS WT-cRAF, sequence (P62937 whole entry): as the sequence (P62937 whole entry) above
Procedure for KRAS G12V-cRAF: (§3) The plate was centrifuged at 1000 rpm for 1 min and then incubated in the thermostatic incubator at 20 °C for 30 min. […] The plate was centrifuged at 1000 rpm for 1 min and then incubated in the thermostatic incubator at 20 °C for 60 min. […] The working solution was added to the aforementioned assay plate at 5 µL/well. The plate was centrifuged at 1000 rpm for 1 min and then incubated in the thermostatic incubator at 20 °C for 60 min.
Procedure for KRAS WT-cRAF: as §3

As to `CCn1c(-c2cc(C#CCN3CCS(=O)(=O)CC3)cnc2C(C)NC)c2c3cc(ccc31)-c1csc(n1)CC(NC(=O)C1C(C)C1C)C(=O)N1CCCC(N1)C(=O)OCC(C)(C)C2` (atropisomer, axis not shown; (Ra)) [Compound Z67, (1r,2R,3S)-N-((6^3S,4S,Z)-(Ra)-1^2-(5-(3-(1,1-dioxidothiomorpholino)prop-1-yn-1-yl)-2-((R)-1-(methylamino)ethyl)pyridin-3-yl)-1-ethyl-10,10-dimethyl-5,7-dioxo-6^1,6^2,6^3,6^4,6^5,6^6-hexahydro-1^1H-8-oxa-2(4,2)-thiazola-1(5,3)-indola-6(1,3)-pyridazinacycloundecaphane-4-yl)-2,3-dimethylcyclopropane-1-carboxamide], the 50% inhibitory concentration (IC50) (usually the concentration at which inhibition is half-maximal) at KRAS G12V-cRAF was 8.7 nM; on KRAS WT-cRAF, 62 nM. The negative-log IC50 (pIC50) (in general, the negative decadic logarithm of the IC50, by convention in mol/L) in the series with AsPC-1 p-ERK is 7.98; in the series on H441 p-ERK, 8.09. Also, the solubility (usually the dissolved amount per volume that the medium holds) at 24 h in series [1] (pH 7.4 medium) was found to be 101 µg/mL (≈ 113 µM).

Consider `CCn1c(-c2cc(C#CCN3CCC(C(=O)NCCO)CC3)cnc2[C@H](C)OC)c2c3cc(ccc31)-c1csc(n1)C[C@H](NC(=O)[C@H]1[C@@H]3COC[C@@H]31)C(=O)N1CCC[C@H](N1)C(=O)OCC(C)(C)C2` (atropisomer, axis not shown; (Ra)) [Compound Z21, 1-(3-(5-((6^3S,4S,Z)-4-((1R,5S,6r)-3-oxabicyclo[3.1.0]hexane-6-carboxamido)-1^1-ethyl-10,10-dimethyl-5,7-dioxo-6^1,6^2,6^3,6^4,6^5,6^6-hexahydro-1^1H-8-oxa-2(4,2)-thiazola-1(5,3)-indola-6(1,3)-pyridazinacycloundecaphane-1^2-yl)-6-(Ra)-((S)-1-methoxyethyl)pyridin-3-yl)prop-2-yn-1-yl)-N-(2-hydroxyethyl)piperidine-4-carboxamide], for which the negative-log IC50 (pIC50) with NCI-H441 cells is 9.39; with AsPC-1 p-ERK it was 8.77; in the series with H441 p-ERK, 9.29; with AsPC-1 cells, 8.95. Besides, the concentration in solution in series [1] (ph 7.4 medium) (solubility at 24 h) was 9.71 µg/mL (≈ 10.2 µM).

Take `CCn1c(-c2cc(C#CCN3CCC(C#N)(CO)CC3)c[n+]([O-])c2[C@H](C)OC)c2c3cc(ccc31)-c1csc(n1)C[C@H](NC(=O)[C@H]1[C@H](C)[C@@H]1C)C(=O)N1CCC[C@H](N1)C(=O)OCC(C)(C)C2` (atropisomer, axis not shown; (Ra)) [Compound Z45-1, 5-(3-(4-cyano-4-(hydroxymethyl)piperidin-1-yl)prop-1-yn-1-yl)-(Ra)-3-((6^3S,4S,Z)-4-((1r,2R,3S)-2,3-dimethylcyclopropane-1-carboxamido)-1^1-ethyl-10,10-dimethyl-5,7-dioxo-6^1,6^2,6^3,6^4,6^5,6^6-hexahydro-1^1H-8-oxa-2(4,2)-thiazola-1(5,3)-indola-6(1,3)-pyridazinacycloundecaphane-1^2-yl)-2-((S)-1-methoxyethyl)pyridine 1-oxide]: the pIC50 with NCI-H441 cells was 9.28; with AsPC-1 p-ERK, 9.55; in the series with H441 p-ERK, 9.22; in the series on AsPC-1 cells, 9.92. Also, the solubility at 24 h in series [1] (ph 7.4 medium) came out at 5.01 µg/mL (≈ 5.45 µM).

With `COCCn1c(-c2cc(C#CCN3CCN(C(=O)CO)CC3)c[n+]([O-])c2C(C)OC)c2c3cc(ccc31)-c1csc(n1)CC(NC(=O)C1C3COCC31)C(=O)N1CCCC(N1)C(=O)OCC(C)(C)C2` (atropisomer, axis not shown; (Ra)) [Compound Z38-1, (Ra)-3-((6^3S,4S,Z)-4-((1R,5S,6r)-3-oxabicyclo[3.1.0]hexane-6-carboxamido)-1^1-(2-methoxyethyl)-10,10-dimethyl-5,7-dioxo-6^1,6^2,6^3,6^4,6^5,6^6-hexahydro-1^1H-8-oxa-2(4,2)-thiazola-1(5,3)-indola-6(1,3)-pyridazinacycloundecaphane-1^2-yl)-5-(3-(4-(2-hydroxyacetyl)piperazin-1-yl)prop-1-yn-1-yl)-2-((S)-1-methoxyethyl)pyridine-1-oxide], the half-maximal inhibitory concentration (IC50) turned out to be 37.7 nM on KRAS G12V-cRAF and 69.6 nM at KRAS WT-cRAF. In series [1] (pH 7.4 medium), the concentration in solution (solubility at 24 h) was 97 µg/mL (≈ 100 µM).

As for `CCn1c(-c2cc(C#CCN3CCS(=O)(=O)CC3)cnc2C(C)OC)c2c3cc(ccc31)-c1csc(n1)CC(NC(=O)C1C3CNCC31)C(=O)N1CCCC(N1)C(=O)OCC(C)(C)C2` (atropisomer, axis not shown; (Ra)) [Compound Z18, (1R,5S,6r)-N-((6^3S,4S,Z)-(Ra)-1^2-(5-(3-(1,1-dioxidothiomorpholino)prop-1-yn-1-yl)-2-((S)-1-methoxyethyl)pyridin-3-yl)-1^1-ethyl-10,10-dimethyl-5,7-dioxo-6^1,6^2,6^3,6^4,6^5,6^6-hexahydro-1^1H-8-oxa-2(4,2)-thiazola-1(5,3)-indola-6(1,3)-pyridazinacycloundecaphane-4-yl)-3-azabicyclo[3.1.0]hexane-6-carboxamide], the 50% inhibitory concentration (IC50) on KRAS G12V-cRAF is 16.5 nM; on KRAS WT-cRAF, 31 nM. For the same compound, the concentration in solution in series [1] (pH 7.4 medium) (solubility at 24 h) was 22.4 µg/mL (≈ 24.6 µM).

Turning to `CO[C@@H](C)c1ncc(C#CCN2CCS(=O)(=O)CC2)cc1-c1c2c3cc(ccc3n1CCCO)-c1csc(n1)C[C@H](NC(=O)[C@H]1[C@@H]3COC[C@@H]31)C(=O)N1CCC[C@H](N1)C(=O)OCC(C)(C)C2` (atropisomer, axis not shown; (Ra)) [Compound Z24-1, (1R,5S,6r)-N-((6^3S,4S,Z)-1^2-(5-(3-(1,1-dioxidothiomorpholino)prop-1-yn-1-yl)-(Ra)-2-((S)-1-methoxyethyl)-pyridin-3-yl)-1^1-(3-hydroxypropyl)-10,10-dimethyl-5,7-dioxo-6^1,6^2,6^3,6^4,6^5,6^6-hexahydro-1^1H-8-oxa-2(4,2)-thiazola-1(5,3)-indola-6(1,3)-pyridazinacycloundecaphane-4-yl)-3-oxabicyclo[3.1.0]hexane-6-carboxamide], the pIC50 is 8.75 with NCI-H441 cells and 8.42 in the series with H441 p-ERK. Besides, the half-inhibitory concentration (IC50) stood at 2.64 nM in the series on AsPC-1 p-ERK (ASPC1, 3 h, read-out: AsPC-1 p-ERK IC50(nM)) and 1.73 nM with AsPC-1 cells (read-out: AsPC-1 AP IC50(nM)). The compound further registered a solubility at 24 h in series [1] (ph 7.4 medium) of 12.3 µg/mL (≈ 13.1 µM).

Consider `CCn1c(-c2cc(OCCN3CCC(C#N)(CN)CC3)c[n+]([O-])c2[C@H](C)OC)c2c3cc(ccc31)-c1csc(n1)C[C@H](NC(=O)[C@H]1[C@H](C)[C@@H]1C)C(=O)N1CCC[C@H](N1)C(=O)OCC(C)(C)C2` (atropisomer, axis not shown; (Ra)) [Compound Z73, 5-(2-(4-(aminomethyl)-4-cyanopiperidin-1-yl)ethoxy)-(Ra)-3-((6^3S,4S,Z)-4-((1r,2R,3S)-2,3-dimethylcyclopropane-1-carboxamido)-1^1-ethyl-10,10-dimethyl-5,7-dioxo-6^1,6^2,6^3,6^4,6^5,6^6-hexahydro-1^1H-8-oxa-2(4,2)-thiazola-1(5,3)-indola-6(1,3)-pyridazinacycloundecaphane-1^2-yl)-2-((S)-1-methoxyethyl)pyridine 1-oxide], for which the pIC50 is 8.61 in the series with NCI-H441 cells, 8.50 in the series with AsPC-1 p-ERK, 8.42 in the series on H441 p-ERK and 8.60 with AsPC-1 cells. This compound also returned a solubility at 24 h in series [1] (ph 7.4 medium) of 96.6 µg/mL (≈ 104 µM).
